{"source": "patent US20150197500A1", "about": "“NO-RELEASING GUANIDINE-CHROMENE CONJUGATES” (Euclises Pharmaceuticals, Inc., priority 2014, published 2015)", "test_system": "PGE2 production", "assay": "Rat air-pouch model for acute inflammation (PGE2 in exudate by ELISA)", "assay_type": "in vivo, Sprague-Dawley rats", "conditions": "oral gavage 0.01 mmol/kg 2 h before carrageenan, exudate 4 h after carrageenan, 6 rats/group", "method": "A study of chromene release is assessed by measurement of PGE2 levels, which are indicative of inflammatory response.\nAnimals: Sprague-Dawley rats (Charles River Laboratories, R #3234, PO #738990, male, 160-180 g) are received, individually examined, and housed in cages of five rats each. The rats are ear notched for identification purposes.\nCompounds and dosing solutions: The vehicle is prepared by dissolving 40 g (2-hydroxypropyl)-[…] making a 25% solution which is filter sterilized (0.2 μm, Nalgene, Cat. 151-4020, lot 1095610). […]\nDay 6—Compound administration and carrageenan insult: At commencement of the study, each rat is weighed and sorted into treatment groups of 6 rats/group based upon average weight. […] The pouch is gently massaged, the exudate immediately removed, and exudate volume recorded. […]\nData analysis: The exudate samples are thawed to room temperature and assayed by ELISA for PGE2 (R&D Systems, Cat. KGE004B, lot 307711). Statistical significance of treatments on mean exudate volumes are determined by comparison of means for treatment groups with vehicle group. Mean cytokine concentrations and standard deviations are determined for each group. […] Statistical significance (p-value) is calculated vs control groups by Student's t-Test. […]", "note": "Where a name gives a salt, the structure may show the parent alone.", "data": [{"smiles": "CC(=O)NC(CCCNC(=N)N)C(=O)OCOC(=O)C1=Cc2cc(Cl)c(C(C)(C)C)cc2OC1C(F)(F)F", "note": "(stereo not shown) [Example 33a, trifluoroacetate salt]", "values": [{"measurement": "% Inhibition of PGE2 production relative to control (+/−S.D.)", "result": "75.7 (+/−11.9) %"}]}]}
